Key:
[1] = tested on: D122 cells (3LL Lewis lung carcinoma); test: Tumor growth in footpads of mice injected with D122 lung tumor cells, oral YHI1; format: in vivo, C57BL/6 mice
Procedure: (§1) YHI1 was synthesized by solid phase synthesis to over 95% purity. To assess the effect of YHI1 on local tumor growth, lung cancer cells were injected into footpads of mice to induce the formation of a topical tumor, and the tumor size was measured in mice treated with several dosages of YHI1 or with vehicle only. Two separate experiments were carried out using this model, one in which YHI1 and vehicle were administered orally and another in which YHI1 and vehicle were administered via intraperitoneal (i.p.) injection.
Female C57BL/6 mice were injected in the footpads with D122 cells (2×10^5 cells per mouse suspended in 50 μl PBS), a highly metastatic 3LL Lewis lung carcinoma. YHI1 (dissolved in saline) was orally administered at the indicated doses 8, 6, 4 and 1 day prior to cell injection and thereafter during 35 days, 3 times a week. Control mice received the vehicle (saline). Tumor size (diameter) was measured by a caliper. Baseline value (before cell injection) was subtracted from each measurement. Groups: control (n=10), and YHI1—0.1 mg/kg (n=9), 1 mg/kg (n=10), 5 mg/kg (n=8).
The results are expressed as mean±SE. p<0.05 for 5 mg/kg group versus control, for the period of 23-35 days (Mann-Whitney test).

[2] = tested on: D122 cells (3LL Lewis lung carcinoma); test: Tumor growth in footpads of mice injected with D122 lung tumor cells, i.p. YHI1; format: in vivo, C57BL/6 mice
Procedure: as §1
Female C57BL/6 mice were injected in the footpads with D122 cells (2×10^5 cells per mouse suspended in 50 μl PBS). YHI1 was i.p. administered at the indicated doses 8, 6, 4 or 1 day prior to cell injection and thereafter up to 34 days, 3 times a week. Control mice received the vehicle (saline). Tumor size (diameter) was measured by a caliper. Baseline value (before cell injection) was subtracted from each measurement. Groups: control (n=10), and YHI1—0.1 μg/kg (n=10), 1 μg/kg (n=10), 10 μg/kg (n=11), 100 μg/kg (n=9).
The results are expressed as mean±SE using the Kruskal-Wallis test and Dunnett's multiple comparison post test for statistical evaluation of the differences between the treated groups and control group at each time point.

D122 cells [3] = test: Lung metastasis in mice i.v. injected with D122 cells, treatment started before cell injection; format: in vivo, C57BL/6 mice; settings: for reduction in Δ lung weight compared to control: day 35
Procedure: To examine the effect of YHI1 on cancer cell metastasis, lung metastasis was induced in mice, and the lung weight and the number of large metastases in mice treated with YHI1 or with vehicle only were measured.
Female C57BL/6 mice were i.v. injected with D122 cells (5×10^5 cells per mouse suspended in 100 μl PBS). YHI1 was i.p. administered at doses of 0.1 μg/kg body weight and 0.01 μg/kg body weight 8, 6, 4 and 1 day prior to cell injection and thereafter up to 35 days, 3 times a week. Control mice received the vehicle (saline).
Lung weight was determined on day 35 for each animal. Mean weight of lungs of healthy-non injected mice was subtracted from each value of the experimental and control groups, and the results are expressed as A lung weight. n=11, 10 and 9 mice for control, YHI1 0.1 and 0.01 μg/kg groups, respectively. Results are expressed as mean±SE using the Kruskal-Wallis test and Dunnett's multiple comparison post test for statistical evaluation of the differences in lung weight between the experimental groups and control mice. *p<0.05 for both 0.1 μg/kg and 0.01 μg/kg groups.
The number of large visible metastases in the lungs was next quantified. […] The results are expressed as mean±SE. *p<0.05 Mann Whitney test.
The lungs were then fixed, sectioned and stained with H&E for histopathological evaluation.

D122 cells [4] = test: Lung metastasis in mice i.v. injected with D122 cells, treatment started 7 days after cell injection; format: in vivo, C57BL/6 mice; settings: i.p. 0.01 μg/kg from 7 days after cell injection
Procedure: To assess whether time of treatment affects the metastasis process, YHI1 was administered 7 days after tumor cell injection. Female C57BL/6 mice were i.v. injected with D122 cells (5×10^5 cells per mouse suspended in 100 μl PBS). YHI1 was i.p. administered at a dose of 0.01 μg/kg body weight (volume of 0.1 ml) 7 days after cell injection and thereafter up to 35 days, 3 times a week. Control mice received the vehicle (saline). Lung weight, number of tumors, lung histology (H&E) and survival were determined on day 35 after cell inoculation for each animal Lung weight was compared to a healthy lung removed from a naïve animal.

[5] = tested on: 4T1 mammary carcinoma cells; test: Lung metastasis in mice inoculated with 4T1 mammary carcinoma cells (Example 4); format: in vivo, BALB/c mice; design: Score (histological score of lung, per specimen): scale not given here
Procedure: Female BALB/c mice (9-10 weeks) were i.v. injected with mammary 4T1 tumor cells (1×10^4 cells in 0.2 ml culture medium). YHI1 was i.p. administered to the mice at doses of 3, 10 and 30 ng/kg body weight (0.1 ml) on day 5 after tumor cell inoculation and thereafter 6 days a week, until day 21, on which day the mice were sacrificed. Control mice received saline (vehicle) injections. Additional 3 mice remained naïve (“pure control”, no cell injection, no treatment). Each dose group contained 10 mice. At the end of the experiments the mice were sacrificed, the lungs of the mice were removed, weighed and quantified for the number of foci.

B16-F10 cells = test: Tumorigenicity of B16-F10 melanoma cells injected subcutaneously; format: in vivo, C57BL/6 mice; settings: 17 days after cell injection
Procedure: To examine the effect of YHI1 on melanoma tumor cells, female C57BL/6 mice (6-7 weeks) were subcutaneously injected in the lateral thoracic-abdominal area with B16-F10 cells (2×10^5 cells in 0.1 ml culture medium). YHI1 was i.p. administered at doses of 30 and 100 ng/kg body weight (0.1 ml) on day 3 after tumor cell inoculation and thereafter until day 20 of tumor cell inoculation, 6 times a week. Control mice received saline (vehicle) injections. Each dose group contained 10 mice. Tumor size was measured along the experiment and was expressed as multiplication of length and width of the tumor.

[6] = tested on: 4T1 mammary carcinoma cells; test: Lung metastasis in mice inoculated with 4T1 cells, YHI1 and derivatives vs control compounds (Example 6); format: in vivo, BALB/c mice; settings: i.p., doses molar equivalent to 30 ng/kg YHI1, day 5 to day 16, 6 days a week
Procedure: YHI1 and its derivatives YHI2 and YHI4 were tested in comparison to a scrambled sequence (designated ‘YHI3’), IIIM1 and Arg-Pbf. All peptides were synthesized to over 98% purity.
Female BALB/c mice (9-10 weeks old) were iv injected with 4T1 cells (1×10^4 cells in 0.2 ml culture medium; medium was replaced with fresh medium one day prior to the injection). The tested compounds were ip administered on day 5 after tumor cell inoculation and continued daily thereafter 6 days a week until day 16, on which day the mice were sacrificed (in YHI3 group one animal died 14 days after cell injection before end of study). Each mouse received 10 injections during 11 consecutive days. A control group of mice received the same volume of saline (vehicle) injections. Each group contained 8 mice (n=8). Additional 4 mice remained naïve (without tumor cell injection and without any treatment), designated here as ‘pure control’. At the end of the experiments the mice were sacrificed and their lungs were removed, weighed and quantified for number of foci.

For “H-Lys-Gly-His-Tyr-Ala-Glu-Arg(Pbf)-Val-Gly-OH (KGHYAEXVG; HELM PEPTIDE1{K.G.H.Y.A.E.[Cc1c(C)c(S(=O)(=O)NC(=N)NCCC[C@H](N[*:1])C(=O)[*:2])c(C)c2c1OC(C)(C)C2].V.G}$$$$V2.0; SMILES Cc1c(C)c(S(=O)(=O)NC(=N)NCCC[C@H](NC(=O)[C@H](CCC(=O)O)NC(=O)[C@H](C)NC(=O)[C@H](Cc2ccc(O)cc2)NC(=O)[C@H](Cc2c[nH]cn2)NC(=O)CNC(=O)[C@@H](N)CCCCN)C(=O)N[C@H](C(=O)NCC(=O)O)C(C)C)c(C)c2c1OC(C)(C)C2) [YHI1]”, which “reduction of tumor size, comparison between doses” value ([1]; oral, 5 mg/kg vs 1 mg/kg and 0.1 mg/kg) is on record?
The value was “more effective in reducing tumor size than the lower doses”.

And the “rate of tumor growth (tumor size, diameter)” value ([1]; oral, 0.1, 1, 5 mg/kg, 8, 6, 4, 1 day prior to cell injection and 3 times a week during 35 days)?
The value was “reduced the rate of tumor growth”.

What about the “reduction of tumor size, comparison between doses” value ([2]; 0.1 μg/kg vs higher doses up to 100 μg/kg) of the same substance?
The value was “more effective in reducing tumor size than higher doses”.

And the “rate of tumor growth (tumor size, diameter)” value ([2]; 0.1-100 μg/kg, 8, 6, 4, 1 day prior to cell injection and 3 times a week up to 34 days)?
Its value is “reduced the rate of tumor growth”.

And the “number of large visible metastases in the lungs” value (D122 cells [3]; i.p. 0.01 μg/kg)?
Its value is “totally eliminated visible metastases”.

And the “reduction in Δ lung weight compared to control” value (D122 cells [3]; i.p. 0.01 μg/kg)?
Its value is 87%.

What about the “lung histopathology (H&E)” value (D122 cells [3]; i.p. 0.01 μg/kg, representative section) of the same substance?
Its value is “tumor free”.

What about the “reduction of number of large metastases compared to control” value (D122 cells [3]; i.p. 0.1 μg/kg) of the same substance?
The value was 58%.

And the “reduction in Δ lung weight compared to control” value (D122 cells [3]; i.p. 0.1 μg/kg)?
Its value is 78%.

And the “histological lung sections (H&E)” value (D122 cells [4])?
The value was “only a single focus of viable tumor”.

What about the “histological score of lung metastasis” value (D122 cells [4]) of the same substance?
Its value is “significantly reduced”.

What about the “lung weight lower than control” value (D122 cells [4]; day 35) of the same substance?
Its value is 63%.

And the “number of large and medium sized metastases in the lungs” value (D122 cells [4]; day 35)?
The value was “significantly reduced”.

And the survival (D122 cells [4]; control 80% survival)?
Its survival is “full animal survival”.

And the “Description (blindly evaluated) of lung histology, per specimen” value ([5]; 30 ng/kg, individual specimens i-X)?
Its value is “No metastases observed”.

What about the “Score (histological score of lung, per specimen)” value ([5]; 30 ng/kg, individual specimens i-X, blindly evaluated) of the same substance?
Its value is 0.

What about the “effect on foci number” value ([5]; i.p. 3 ng/kg) of the same substance?
Its value is “no effect”.

And the “effect on lung weight” value ([5]; i.p. 3 ng/kg, day 5 to day 21, 6 days a week)?
Its value is “no effect”.

And the “reduction of number of lung foci vs control” value ([5]; i.p. 10 ng/kg)?
Its value is 94%.

What about the “reduction of lung weight vs control” value ([5]; i.p. 10 ng/kg, day 5 to day 21, 6 days a week) of the same substance?
Its value is 65%.

And the “reduction of number of lung foci vs control” value ([5]; i.p. 30 ng/kg)?
The value was 100%.

What about the “histological score of lung metastasis (group)” value ([5]; i.p. 30 ng/kg vs control) of the same substance?
The value was “significantly reduced”.

And the “reduction of lung weight vs control” value ([5]; i.p. 30 ng/kg, day 5 to day 21, 6 days a week)?
Its value is 78%.

What about the histological lung section ([5]; i.p. 30 ng/kg, representative section) of the same substance?
The histological lung section was “normal lung tissue with no evidence of metastases”.

And the “effect on local tumor growth” value (B16-F10 cells; i.p. 30 ng/kg compared with 100 ng/kg)?
The value was “slightly weaker effect”.

And the “reduction of local tumor growth (tumor size, length x width)” value (B16-F10 cells; i.p. 100 ng/kg)?
Its value is 55%.

And the “lung weight compared to saline control” value [6]?
Its value is “significant reduction”.

What about the “number of tumors per lung compared to saline control” value [6] of the same substance?
Its value is “significant reduction”.

How did the “lung weight compared to saline control” value [6] turn out when “H-Lys-Gly-His-Tyr-Arg(Pbf)-Ala-Glu-Val-Gly-OH (KGHYXAEVG; HELM PEPTIDE1{K.G.H.Y.[Cc1c(C)c(S(=O)(=O)NC(=N)NCCC[C@H](N[*:1])C(=O)[*:2])c(C)c2c1OC(C)(C)C2].A.E.V.G}$$$$V2.0; SMILES Cc1c(C)c(S(=O)(=O)NC(=N)NCCC[C@H](NC(=O)[C@H](Cc2ccc(O)cc2)NC(=O)[C@H](Cc2c[nH]cn2)NC(=O)CNC(=O)[C@@H](N)CCCCN)C(=O)N[C@@H](C)C(=O)N[C@@H](CCC(=O)O)C(=O)N[C@H](C(=O)NCC(=O)O)C(C)C)c(C)c2c1OC(C)(C)C2) [YHI2, KGHYR(Pbf)AEVG, derivative of YHI1]” was run?
The value was “significant reduction”.

And the “number of tumors per lung compared to saline control” value [6]?
Its value is “significant reduction”.

Which results are given for “H-Lys-Gly-His-Tyr-Ala-Glu-Arg(NO2)-Val-Gly-OH (KGHYAEXVG; HELM PEPTIDE1{K.G.H.Y.A.E.[N=C(NCCC[C@H](N[*:1])C(=O)[*:2])N[N+](=O)[O-]].V.G}$$$$V2.0; SMILES CC(C)[C@H](NC(=O)[C@H](CCCNC(=N)N[N+](=O)[O-])NC(=O)[C@H](CCC(=O)O)NC(=O)[C@H](C)NC(=O)[C@H](Cc1ccc(O)cc1)NC(=O)[C@H](Cc1c[nH]cn1)NC(=O)CNC(=O)[C@@H](N)CCCCN)C(=O)NCC(=O)O) [YHI4, KGHYAER(NO2)VG, derivative of YHI1]”?
lung weight compared to saline control [6]: significant reduction; number of tumors per lung compared to saline control [6]: reduction was not statistically significant
